System: 935938-334-R-J1-PDC spheroids with HUVEC/MSC, viability
Assay: Anticancer human tumor 935938-334-R-J1-PDC patient-derived small intestine adenocarcinoma cell line growth inhibition [PI3K]
Details: for IC50: curve of first compound; for viability, T/C: stronger effect = lower value
Summary of the method: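 Tumor cells grown as multi-cell spheroids with HUVEC endothelial cells and MSC fibroblast-like stroma were treated with targeted agents combined with inavolisib, alpelisib, duvelisib or copanlisib. Doses fell in half-log steps from near clinical Cmax, else from 10 microM. Viability was measured.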

[1] = second compound 0.00316 µM, first compound 0.0316 µM
[2] = second compound 0.00316 µM, first compound 0.1 µM
[3] = second compound 0.00316 µM, first compound 0.316 µM
[4] = second compound 0.00316 µM, first compound 1 µM
[5] = second compound 0.00316 µM, first compound 3.16 µM
[6] = second compound 0.00316 µM, first compound 10 µM
[7] = second compound 0.01 µM, first compound 0.0316 µM
[8] = second compound 0.01 µM, first compound 0.1 µM
[9] = second compound 0.01 µM, first compound 0.316 µM
[10] = second compound 0.01 µM, first compound 1 µM
[11] = second compound 0.01 µM, first compound 3.16 µM
[12] = second compound 0.01 µM, first compound 10 µM
[13] = second compound 0.0316 µM, first compound 0.0316 µM
[14] = second compound 0.0316 µM, first compound 0.1 µM
[15] = second compound 0.0316 µM, first compound 0.316 µM
[16] = second compound 0.0316 µM, first compound 1 µM
[17] = second compound 0.0316 µM, first compound 3.16 µM
[18] = second compound 0.0316 µM, first compound 10 µM
[19] = second compound 0.1 µM, first compound 0.0316 µM
[20] = second compound 0.1 µM, first compound 0.1 µM
[21] = second compound 0.1 µM, first compound 0.316 µM
[22] = second compound 0.1 µM, first compound 1 µM
[23] = second compound 0.1 µM, first compound 3.16 µM
[24] = second compound 0.1 µM, first compound 10 µM
[25] = second compound 0.316 µM, first compound 0.0316 µM
[26] = second compound 0.316 µM, first compound 0.1 µM
[27] = second compound 0.316 µM, first compound 0.316 µM
[28] = second compound 0.316 µM, first compound 1 µM
[29] = second compound 0.316 µM, first compound 3.16 µM
[30] = second compound 0.316 µM, first compound 10 µM
[31] = second compound 1 µM, first compound 0.0316 µM
[32] = second compound 1 µM, first compound 0.1 µM
[33] = second compound 1 µM, first compound 0.316 µM
[34] = second compound 1 µM, first compound 1 µM
[35] = second compound 1 µM, first compound 3.16 µM
[36] = second compound 1 µM, first compound 10 µM
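Further: compound exposure lasted seven days before viability was read.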
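Wherever viability, T/C is given: percent of vehicle DMSO treated spheroid viability so 100% = untreated.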

CCCS(=O)(=O)Nc1ccc(F)c(C(=O)c2c[nH]c3ncc(-c4ccc(Cl)cc4)cc23)c1F + COc1c(OCCCN2CCOCC2)ccc2c3n(c(=NC(=O)c4cnc(N)nc4)nc12)CCN3
IC50 (second compound 0.00316 µM): 7.39 µM | IC50 (second compound 0.01 µM): 7.41 µM | IC50 (second compound 0.0316 µM): 6.73 µM | IC50 (second compound 0.1 µM): 5.38 µM | IC50 (second compound 0.316 µM): < 0.0316 µM | IC50 (second compound 1 µM): < 0.0316 µM | viability, T/C [1]: 97.3% | viability, T/C [2]: 104% | viability, T/C [3]: 113% | viability, T/C [4]: 132% | viability, T/C [5]: 102% | viability, T/C [6]: 31.2% | viability, T/C [7]: 123% | viability, T/C [8]: 107% | viability, T/C [9]: 96.1% | viability, T/C [10]: 120% | viability, T/C [11]: 115% | viability, T/C [12]: 28.1% | viability, T/C [13]: 95% | viability, T/C [14]: 81.4% | viability, T/C [15]: 85% | viability, T/C [16]: 108% | viability, T/C [17]: 87.9% | viability, T/C [18]: 29.5% | viability, T/C [19]: 61.8% | viability, T/C [20]: 65.5% | viability, T/C [21]: 65.3% | viability, T/C [22]: 89.1% | viability, T/C [23]: 70.6% | viability, T/C [24]: 26.7% | viability, T/C [25]: 39% | viability, T/C [26]: 45.2% | viability, T/C [27]: 51.6% | viability, T/C [28]: 49.3% | viability, T/C [29]: 49.5% | viability, T/C [30]: 31.9% | viability, T/C [31]: 39.2% | viability, T/C [32]: 40.9% | viability, T/C [33]: 39.3% | viability, T/C [34]: 50% | viability, T/C [35]: 50.3% | viability, T/C [36]: 23.9%

C[C@@H](NC(=O)c1ncnc(N)c1Cl)c1ncc(C(=O)Nc2cc(C(F)(F)F)c(Cl)cn2)s1 + COc1c(OCCCN2CCOCC2)ccc2c3n(c(=NC(=O)c4cnc(N)nc4)nc12)CCN3
IC50 (second compound 0.00316 µM): > 10 µM | IC50 (second compound 0.01 µM): > 10 µM | IC50 (second compound 0.0316 µM): > 10 µM | IC50 (second compound 0.1 µM): 6.99 µM | IC50 (second compound 0.316 µM): < 0.0316 µM | IC50 (second compound 1 µM): < 0.0316 µM | viability, T/C [1]: 124% | viability, T/C [2]: 105% | viability, T/C [3]: 116% | viability, T/C [4]: 108% | viability, T/C [5]: 123% | viability, T/C [6]: 82.3% | viability, T/C [7]: 104% | viability, T/C [8]: 122% | viability, T/C [9]: 115% | viability, T/C [10]: 117% | viability, T/C [11]: 101% | viability, T/C [12]: 90% | viability, T/C [13]: 81.3% | viability, T/C [14]: 94.4% | viability, T/C [15]: 96.2% | viability, T/C [16]: 85.4% | viability, T/C [17]: 76.3% | viability, T/C [18]: 69.9% | viability, T/C [19]: 67.5% | viability, T/C [20]: 65.7% | viability, T/C [21]: 73.2% | viability, T/C [22]: 71.2% | viability, T/C [23]: 60.8% | viability, T/C [24]: 44.5% | viability, T/C [25]: 46.3% | viability, T/C [26]: 42.1% | viability, T/C [27]: 38.9% | viability, T/C [28]: 41.8% | viability, T/C [29]: 40.1% | viability, T/C [30]: 42.9% | viability, T/C [31]: 36.8% | viability, T/C [32]: 41.3% | viability, T/C [33]: 40.8% | viability, T/C [34]: 37.3% | viability, T/C [35]: 37.5% | viability, T/C [36]: 34.7%

Cn1ncnc1[C@H]1c2n[nH]c(=O)c3cc(F)cc(c23)N[C@@H]1c1ccc(F)cc1 + COc1c(OCCCN2CCOCC2)ccc2c3n(c(=NC(=O)c4cnc(N)nc4)nc12)CCN3
IC50 (second compound 0.00316 µM): > 0.1 µM | IC50 (second compound 0.01 µM): > 0.1 µM | IC50 (second compound 0.0316 µM): > 0.1 µM | IC50 (second compound 0.1 µM): 0.00829 µM | IC50 (second compound 0.316 µM): < 0.000316 µM | IC50 (second compound 1 µM): < 0.000316 µM | viability, T/C (second compound 0.00316 µM, first compound 0.000316 µM): 90.8% | viability, T/C (second compound 0.00316 µM, first compound 0.001 µM): 96.6% | viability, T/C (second compound 0.00316 µM, first compound 0.00316 µM): 103% | viability, T/C (second compound 0.00316 µM, first compound 0.01 µM): 83.3% | viability, T/C [1]: 96.2% | viability, T/C [2]: 92.8% | viability, T/C (second compound 0.01 µM, first compound 0.000316 µM): 109% | viability, T/C (second compound 0.01 µM, first compound 0.001 µM): 106% | viability, T/C (second compound 0.01 µM, first compound 0.00316 µM): 92.3% | viability, T/C (second compound 0.01 µM, first compound 0.01 µM): 82.2% | viability, T/C [7]: 92.4% | viability, T/C [8]: 77.4% | viability, T/C (second compound 0.0316 µM, first compound 0.000316 µM): 77% | viability, T/C (second compound 0.0316 µM, first compound 0.001 µM): 65.6% | viability, T/C (second compound 0.0316 µM, first compound 0.00316 µM): 90.2% | viability, T/C (second compound 0.0316 µM, first compound 0.01 µM): 82.2% | viability, T/C [13]: 73.8% | viability, T/C [14]: 76% | viability, T/C (second compound 0.1 µM, first compound 0.000316 µM): 56% | viability, T/C (second compound 0.1 µM, first compound 0.001 µM): 52% | viability, T/C (second compound 0.1 µM, first compound 0.00316 µM): 57.5% | viability, T/C (second compound 0.1 µM, first compound 0.01 µM): 47.2% | viability, T/C [19]: 43.5% | viability, T/C [20]: 50.2% | viability, T/C (second compound 0.316 µM, first compound 0.000316 µM): 31.2% | viability, T/C (second compound 0.316 µM, first compound 0.001 µM): 35.3% | viability, T/C (second compound 0.316 µM, first compound 0.00316 µM): 34.5% | viability, T/C (second compound 0.316 µM, first compound 0.01 µM): 34.6% | viability, T/C [25]: 34.2% | viability, T/C [26]: 35.4% | viability, T/C (second compound 1 µM, first compound 0.000316 µM): 33.1% | viability, T/C (second compound 1 µM, first compound 0.001 µM): 40.3% | viability, T/C (second compound 1 µM, first compound 0.00316 µM): 37.5% | viability, T/C (second compound 1 µM, first compound 0.01 µM): 32.7% | viability, T/C [31]: 36% | viability, T/C [32]: 35.1%

— PubChem BioAssay AID1963966 (Molecular Pharmacology Branch, DTP, NCI, 2024)
